# In US8552013B2, “Heterocyclic compounds based on N6-substituted adenine, methods of their preparation, their use for preparation of drugs, cosmetic preparations and growth regulators, pharmaceutical preparations, cosmetic preparations and growth regulators containing these compounds” (USTAV Experimentalni Botaniky Akademie Ved Ceske Republiky, priority 2001, dated 2013):
# What was measured:
# Human lymphocytes = test: Immunosuppressive activity, 3H-thymidine incorporation in concanavalin A activated lymphocytes; assay type: cell-based; conditions: Lymphocyte, 72 hours, [3H]-TdR, read-out: Human lymphocytes ED50
# Excerpt: One of the most important parameters of specific cellular immunity is proliferative response of lymphocytes to antigens or polyclonal mitogens. The majority of normal mammalian peripheral lymphocytes comprise resting cells. Antigens or nonspecific polyclonal mitogens have the capacity to activate lymphoid cells and this is accompanied by dramatic changes of intracellular metabolism (mitochondrial activity, protein synthesis, nucleic acids synthesis, formation of blastic cells and cellular proliferation). […] Variety of in vitro assays was developed to measure proliferative response of lymphocytes. The most commonly used is ^3H-thymidine incorporation method.
# During cell proliferation, DNA has to be replicated before the cell is divided into two daughter cells. This close association between cell doublings and DNA synthesis is very attractive for assessing cell proliferation. If labelled DNA precursors are added to the cell culture, cells that are about to divide incorporate the labelled nucleotide into their DNA. Traditionally, those assays usually involve the use of radiolabelled nucleosides, particularly tritiated thymidine ([^3H]-TdR). The amount of [^3H]-TdR incorporated into the cellular DNA is quantified by liquid scintillation counting.
# Human heparinized peripheral blood was obtained from healthy volunteers by cubital vein punction. The blood was diluted in PBS (1:3) and mononuclear cells were separated by centrifugation in Ficoll-Hypaque density gradient (Pharmacia, 1.077 g/ml) at 2200 rpm for 30 minutes. Following centrifugation, lymphocytes were washed in PBS and resuspended in cell culture medium (RMPI 1640, 2 mM glutamine, 100 U/ml penicillin, 100 μg/ml streptomycin, 10% fetal calf serum and sodium bicarbonate).
# The cells were diluted at target density of 1,100,000 cells/ml were added by pipette (180 μl) into 96/well microtiter plates. Four-fold dilutions of the intended test concentration were added at time zero in 20 μl aliquots to the microtiter plate wells. Usually, test compound was evaluated at six 4-fold dilutions. In routine testing, the highest well concentration was 266.7 μM. All drug concentrations were examined in duplicates. All wells with exception of unstimulated controls were activated with 50 μl of concanavalin A (25 μg/ml). Incubations of cells with test compounds lasted for 72 hours at 37° C., in 5% CO2 atmosphere and 100% humidity. At the end of incubation period, the cells were assayed by using the [^3H]-TdR:
# Cell cultures were incubated with 0.5 μCi (20 μl of stock solution 500 μCi/ml) per well for 6 hours at 37° C. and 5% CO2. The automated cell harvester was used to lyse cells in water and adsorb the DNA onto glass-fiber filters in the format of microtiter plate. The DNA incorporated [^3H]-TdR was retained on the filter while unincorporated material passes through. The filters were dried at room temperature overnight, sealed into a sample bag with 10-12 ml of scintillant. The amount of [^3H]-TdR present in each filter (in cpm) was determined by scintillation counting in a Betaplate liquid scintillation counter. The effective dose of immunosuppressant (ED) was calculated using the following equation: ED=(CCPMdrug exposed well/mean CCPMcontrol wells)×100%. The ED50 value, the drug concentration inhibiting proliferation of 50% of lymphocytes, was calculated from the obtained dose response curves.
# [1] = tested on: Rosa hybrida (pot rose cultivar) explants; test: In vitro and post vitro shoot multiplication and rooting of rose; assay type: in vivo; conditions: for Root number per plant / Total root length per plant: Ex vitro, four weeks of acclimatising; for Flower number per explant / Number of new shoots per explant / Root number per explant / Total root length per explant: In vitro, 10 μM, 8 weeks
# Description: The aim of this experiment was to test whether the new compounds are of practical use in tissue culture practice. The multiplication rate was investigated and the post vitro effects on rooting were examined. Rosa hybrida (pot rose cultivar) was cultured in 350 ml vessels with a screw on polycarbonate lid. Each culture vessel contained 100 ml autoclaved medium (120° C., 20 min). The cultures were maintained at 23±2° C. under a 16 h photoperiod at 40 μM m^−2 s^−1 PAR. The basal medium (BMR) contained Murashige and Skoog (1962) macroelements, microelements and vitamins, 95 μM NaFeEDTA, 555 μM myo-inositol, 111 mM sucrose, 1.332 mM glycine, 684 μM L-glutamine and 7 g/l agar. This medium was supplemented with 10 μM BA, mT, oMeOBAP or mMeOBAP (compound no. 14 and 15, respectively). The control medium didn't contain any cytokinin. After a culture period of 8 weeks, the number of induced shoots per explant was determined, as well as root number/explant and total root length/explant. The roots were removed and the explants (shoot clusters) were planted in unfertilised peat. After four weeks of acclimatising in a fog unit, root number and root length was determined.
# human skin fibroblasts = test: Cell attachment of human skin fibroblasts; assay type: cell-based; conditions: for attachment / Percent of cells attached, effect in words: ortho 40 to 400 μM, meta 40 to 200 μM; for Percent of cells attached, effect in words: para 40 μM to 1 mM; for Overall cell attachment improved (summary): para at 40, 80, 100, 160, 250 and 500 μM
# Description: All experiments were performed on early and mid passage cultures (about 20 to 40% lifespan completed) of normal human adult skin fibroblast line; designated ASF-2 & Senetek cell line (about 10-90% lifespan completed); designated as SF20. In order to check the effects of test compounds on senescent cells, late passage cells with more than 95% lifespan completed were used. ASF-2 and SF20 cell lines were established from a mammary skin biopsy obtained from a young, non-smoking and healthy […] at the time of breast reduction operation. Normal culture conditions of medium (DMEM) containing antibiotics, 10% foetal calf serum, and incubation at 37° C. with 95% humidity were used. The effects of the test chemicals were determined in the following conditions: […]
# [2] = tested on: senescent human skin fibroblasts; test: Actin staining of senescent cells (FITC-Phalloidin); assay type: cell-based; conditions: after 3 days; meta 40 μM
# Excerpt: Actin staining: The pattern of cytoskeletal actin staining was studied by staining the cells with florescent ligand FITC-labelled Phalloidin, using a fluorescence microscope
# [3] = tested on: senescent human skin fibroblasts; test: Morphology of senescent cells; assay type: cell-based; conditions: for appearance of senescent cells on longer treatment: 14 days, ortho and meta 80 μM and above; for appearance of senescent cells: after 7 days of treatment (para: 7 days and 14 days; meta: low concentrations)
# Description: All experiments were performed on early and mid passage cultures (about 20 to 40% lifespan completed) of normal human adult skin fibroblast line; designated ASF-2 & Senetek cell line (about 10-90% lifespan completed); designated as SF20. In order to check the effects of test compounds on senescent cells, late passage cells with more than 95% lifespan completed were used. ASF-2 and SF20 cell lines were established from a mammary skin biopsy obtained from a young, non-smoking and healthy […] at the time of breast reduction operation. Normal culture conditions of medium (DMEM) containing antibiotics, 10% foetal calf serum, and incubation at 37° C. with 95% humidity were used. The effects of the test chemicals were determined in the following conditions:
# Senescent human skin fibroblasts were treated with various doses of para-topolin to see if this treatment could reverse age-related alterations in their morphology. […] The cells progressively became heterogeneous with large and flattened appearance.
SMILES,EC50 (Human lymphocytes) [µM],Root number per plant [1],Total root length per plant [1] [cm],Flower number per explant [1],Number of new shoots per explant [1],Root number per explant [1],Total root length per explant [1] [cm],"reduction in cell attachment (human skin fibroblasts; 400 μM, 6 hours) [%]",attachment (human skin fibroblasts; 6 hours),"Percent of cells attached, effect in words (human skin fibroblasts; 6 hours)",Overall cell attachment improved (summary) (human skin fibroblasts),actin staining pattern in senescent cells [2],"effects on morphology of senescent cells ([3]; 200 μM and above, within 7 days)",appearance of senescent cells on longer treatment [3],appearance of senescent cells [3]
Fc1ccccc1CNc1ncnc2nc[nH]c12 [6-(2-fluorobenzylamino)purine],2.5,,,,,,,,,,,,,,
Fc1cccc(CNc2ncnc3nc[nH]c23)c1 [6-(3-fluorobenzylamino)purine],18.2,,,,,,,,,,,,,,
COc1cccc(CNc2ncnc3nc[nH]c23)c1 [6-(3-methoxybenzylamino)purine],,1.7,4.1,0.03,4.3,0.0,0.0,,,,,,,,
"Oc1cccc(CNc2ncnc3nc[nH]c23)c1 [meta-topolin, 6-(3-hydroxybenzylamino)purine]",5.6,1.4,3.8,0.16,2.1,0.0,0.0,20,about 80%,not affected to any significant extent,No improvements,depolymerised actin filaments to some extent,some negative effects,unhealthy and sick,no significant differences
"Oc1ccccc1CNc1ncnc2nc[nH]c12 [ortho-topolin, 6-(2-hydroxybenzylamino)purine]",,,,,,,,,80 to 90%,not affected to any significant extent,No improvements,no obvious differences,,unhealthy and sick,no significant differences
